According to patent US7858825B2, “Acid and base stable diphenylmethanol derivatives and methods of use” (Colorado State University Research Foundation, priority 2007, dated 2010):

Key:
[1] = Cleavage (deprotection) of the esters 4d and of trifluoroacetate 5a; type: physicochemical
From the text: Thus, compounds of the invention enabled a wide range of organic reactions for the generation of libraries of MraY inhibitors in solution (Scheme III). Compounds of the invention, e.g., (2,6-dicholoro-4-methoxyphenyl)(2,4-dichlorophenyl)methanol, can also be used as linkers to immobilize carboxylic acids, amines, alcohols, as well as other functional groups which can, however, be cleaved by 20% TFA.
The trifluoroacetate 5a was also stable under most acidic conditions tested in Table 1 and SiO2, but could easily be cleaved by aq NH3 in THF-MeOH within 3 h to regenerate 3d in quantitative yield (Scheme 2-2).
The ester of 3d was dissolved in 20% TFA in CH2Cl2 (0.3 M) and kept for 1 h at rt. Volatiles were evaporated in vaccuo to provide the carboxylic acid and 5a. The carboxylic acid was separated from 5d by a silica gel plug (10:1, hexanes:EtOAc to 5:1, CHCl3:MeOH) or a back-extraction procedure [solvent system: EtOAc-water (for the extraction of 5d under a basic condition (NaHCO3), CHCl3-water (for the extraction of the carboxylic acid under an acidic condition (dil. HCl)].

[2] = Stability and cleavage of linker 16 esters; type: physicochemical
Experimental: One of the linkers of the invention, (2-chloro-4-methoxyphenyl)(2,4-dichlorophenyl)methanol 16 was used to immobilize carboxylic acids. The linker was stable under a Boc-deprotection conditions (TsOH.H2O/THF—CH2Cl2). In addition, unlike photolytic (350 nm, 72 h) or Pd-mediated or base-catalyzed cleavage of linkers, the esters of linker 16 was efficiently be cleaved via volatile acids such as 30% TFA/CH2Cl2 or HF.pyridine within 1 h. The progress of each step was conveniently be monitored by LC-MS after the treatment of such Brønsted acids followed by evaporation of volatiles.

Compound | time for cleavage to regenerate 3d ([1]; aq NH3 in THF-MeOH) [h] | stability under acidic conditions ([1]; most acidic conditions tested in Table 1 and SiO2) | time for cleavage of the esters of the linker ([2]; 30% TFA/CH2Cl2 or HF.pyridine) [h] | stability of linker ([2]; Boc-deprotection conditions (TsOH.H2O/THF—CH2Cl2))
COc1cc(Cl)c(C(OC(=O)C(F)(F)F)c2ccc(Cl)cc2Cl)c(Cl)c1 (stereo not shown) [5a, (2,6-dichloro-4-methoxyphenyl)(2,4-dichlorophenyl)methyl 2,2,2-trifluoroacetate] | ≤ 3 | stable |  | 
COc1ccc(C(O)c2ccc(Cl)cc2Cl)c(Cl)c1 (stereo not shown) [compound 16, (2-chloro-4-methoxyphenyl)(2,4-dichlorophenyl)methanol] |  |  | ≤ 1 | stable
